Assay results: patent US20240116947A1, “PYRIDO OXAZINE DERIVATIVES AS ALK5 INHIBITORS” (CHIESI FARMACEUTICI S.P.A., priority 2020, published 2024)
pIC50: −log10 of the molar value.

Target: human ALK5 (Homo sapiens (Human), UniProt P36897)
Experiment: ADP-GLO Kinases assay, inhibition of ALK5 enzymatic activity
Format: biochemical
Conditions: Table 4; potency bins; purified recombinant human ALK5, ADP-Glo, 25° C.; read-out: ALK5 IC50
Protocol: The enzymatic activity of compounds of the present invention was monitored measuring the formation of ADP using the ADP-GLO Kinases assay. Following the incubation of the purified enzyme, a substrate and ATP, the produced ADP was converted into ATP, which in turn was converted into light by Ultra-Glo Luciferase. The luminescent signal positively correlated with ADP amount and kinase activity. Briefly, the kinase reaction was performed by incubating 2.6 nM of the purified, commercially available human ALK5 (recombinant TGF β1 N-term GST-tagged, 80-end), a final concentration of TGFβ1 peptide 94.5 μM (Promega, T36-58) and ultra-pure ATP (Promega V915B). […] All reactions/incubations were performed at 25° C. Compound and ALK5 kinase were mixed and incubated for 15 mins. Reactions were initiated by addition of ATP at a final concentration in the assay of 0.83 μM. After an incubation of 150 min, the reaction was stopped, and ADP production detected with ADP-Glo kit according to manufacturer's indications. The assay was performed in 384-well format and was validated using a selection of reference compounds that was tested in 11 point concentration-response curve.

human ALK5, sequence (P36897 80-503 limits assumed): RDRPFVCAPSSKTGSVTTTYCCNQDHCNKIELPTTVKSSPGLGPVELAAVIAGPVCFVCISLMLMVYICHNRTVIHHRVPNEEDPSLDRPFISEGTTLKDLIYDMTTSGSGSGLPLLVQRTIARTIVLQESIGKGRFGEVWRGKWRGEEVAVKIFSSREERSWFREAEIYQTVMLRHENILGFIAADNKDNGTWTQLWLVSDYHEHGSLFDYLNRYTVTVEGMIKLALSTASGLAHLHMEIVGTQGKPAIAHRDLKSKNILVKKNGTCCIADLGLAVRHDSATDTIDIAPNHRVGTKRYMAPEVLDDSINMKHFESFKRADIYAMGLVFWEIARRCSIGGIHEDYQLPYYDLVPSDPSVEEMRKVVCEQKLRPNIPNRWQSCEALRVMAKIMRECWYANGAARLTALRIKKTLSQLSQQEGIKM

pIC50 | Structure (SMILES)
> 9.00 | CS(=O)(=O)NCCC(=O)Nc1cc(N2CCOc3cnc(-c4cc(Cl)ccc4F)cc32)ccn1 [Example 24, N-{4-[7-(5-chloro-2-fluorophenyl)-1H,2H,3H-pyrido[3,4-b][1,4]oxazin-1-yl]pyridin-2-yl}-3-methanesulfonamidopropanamide]
8.00 to 8.30 | Fc1ccc(Cl)cc1-c1cc2c(cn1)OCCN2c1ccncc1 [Example 1, 4-[7-(5-chloro-2-fluorophenyl)-1H,2H,3H-pyrido[3,4-b][1,4]oxazin-1-yl]pyridine]
> 9.00 | CN(CCC(=O)Nc1cc(N2CCOc3cnc(-c4cc(Cl)ccc4F)cc32)ccn1)C1COC1 [Example 19, N-{4-[7-(5-chloro-2-fluorophenyl)-1H,2H,3H-pyrido[3,4-b][1,4]oxazin-1-yl]pyridin-2-yl}-3-[methyl(oxetan-3-yl)amino]propanamide]
> 9.00 | CN1CCN(CCC(=O)Nc2cc(N3CCOc4cnc(-c5cc(Cl)ccc5F)cc43)ccn2)CC1=O [Example 22, N-{4-[7-(5-chloro-2-fluorophenyl)-1H,2H,3H-pyrido[3,4-b][1,4]oxazin-1-yl]pyridin-2-yl}-3-(4-methyl-3-oxopiperazin-1-yl)propanamide]
> 9.00 | CN(CCO)CCC(=O)Nc1cc(N2CCOc3cnc(-c4cc(Cl)ccc4F)cc32)ccn1 [Example 20, N-{4-[7-(5-chloro-2-fluorophenyl)-1H,2H,3H-pyrido[3,4-b][1,4]oxazin-1-yl]pyridin-2-yl}-3-[(2-hydroxyethyl)(methyl)amino] propanamide]
> 9.00 | CNC(=O)CCN1CCN(CCC(=O)Nc2cc(N3CCOc4cnc(-c5cc(Cl)ccc5F)cc43)ccn2)CC1 [Example 31, 3-{4-[2-({4-[7-(5-chloro-2-fluorophenyl)-1H,2H,3H-pyrido[3,4-b][1,4]oxazin-1-yl]pyridin-2-yl}carbamoyl)ethyl]piperazin-1-yl}-N-methylpropanamide]
> 9.00 | CS(=O)(=O)NCCN1CCN(CCC(=O)Nc2cc(N3CCOc4cnc(-c5cc(Cl)ccc5F)cc43)ccn2)CC1 [Example 30, N-{4-[7-(5-chloro-2-fluorophenyl)-1H,2H,3H-pyrido[3,4-b][1,4]oxazin-1-yl]pyridin-2-yl}-3-[4-(2-methanesulfonamidoethyl)piperazin-1-yl]propanamide]
> 9.00 | CN1CCN(CCNC(=O)Nc2cc(N3CCOc4cnc(-c5cc(Cl)ccc5F)cc43)ccn2)CC1 [Example 55, 1-(4-(7-(5-chloro-2-fluorophenyl)-2,3-dihydro-1H-pyrido[3,4-b][1,4]oxazin-1-yl)pyridin-2-yl)-3-(2-(4-methylpiperazin-1-yl)ethyl)urea]
8.00 to 8.30 | Cc1ccc(F)c(-c2cc3c(cn2)OCCN3c2ccnc(N)c2)c1 [Example 11, 4-[7-(2-fluoro-5-methylphenyl)-1H,2H,3H-pyrido[3,4-b][1,4]oxazin-1-yl]pyridin-2-amine]
8.00 to 8.30 | Nc1cc(N2CCOc3cnc(-c4cc(F)ccc4F)cc32)ccn1 [Example 4, 4-[7-(2,5-difluorophenyl)-1H,2H,3H-pyrido[3,4-b][1,4]oxazin-1-yl]pyridin-2-amine]
> 9.00 | CC(C)c1ccc(F)c(-c2cc3c(cn2)OCCN3c2ccnc(NC(=O)CCN3CCN(C)CC3)c2)c1 [Example 34, N-(4-{7-[2-fluoro-5-(propan-2-yl)phenyl]-1H,2H,3H-pyrido[3,4-b][1,4]oxazin-1-yl}pyridin-2-yl)-3-(4-methylpiperazin-1-yl)propanamide]
> 9.00 | COC(=O)C1CN(CCC(=O)Nc2cc(N3CCOc4cnc(-c5cc(Cl)ccc5F)cc43)ccn2)CCN1C (stereo not drawn) [Example 45, Methyl 4-[2-({4-[7-(5-chloro-2-fluorophenyl)-1H,2H,3H-pyrido[3,4-b][1,4]oxazin-1-yl]pyridin-2-yl}carbamoyl)ethyl]-1-methylpiperazine-2-carboxylate]
8.00 to 8.30 | Nc1nc(-c2cc(Cl)ccc2F)cc2c1OCCN2c1ccncc1 [Example 2, 7-(5-chloro-2-fluorophenyl)-1-(pyridin-4-yl)-1H,2H,3H-pyrido[3,4-b][1,4]oxazin-5-amine]
> 9.00 | CN1CCC(CCC(=O)Nc2cc(N3CCOc4cnc(-c5cc(Cl)ccc5F)cc43)ccn2)CC1 [Example 32, N-{4-[7-(5-chloro-2-fluorophenyl)-1H,2H,3H-pyrido[3,4-b][1,4]oxazin-1-yl]pyridin-2-yl}-3-(1-methylpiperidin-4-yl)propanamide]
> 9.00 | CN1CCN(CCC(=O)Nc2cc(N3CCOc4cnc(-c5cc(Cl)ncc5F)cc43)ccn2)CC1 [Example 42, N-{4-[7-(2-chloro-5-fluoropyridin-4-yl)-1H,2H,3H-pyrido[3,4-b][1,4]oxazin-1-yl]pyridin-2-yl}-3-(4-methylpiperazin-1-yl)propanamide]
> 9.00 | CN1CCN(CCC(=O)Nc2cc(N3CCOc4cnc(-c5nc(Cl)ccc5F)cc43)ccn2)CC1 [Example 38, N-{4-[7-(6-chloro-3-fluoropyridin-2-yl)-1H,2H,3H-pyrido[3,4-b][1,4]oxazin-1-yl]pyridin-2-yl}-3-(4-methylpiperazin-1-yl)propanamide]
8.30 to 9.00 | CN1CCN(CCC(=O)Nc2cc(N3CCOc4c3cc(-c3cc(Cl)ccc3F)nc4C(=O)O)ccn2)CC1 [Example 44, 7-(5-chloro-2-fluorophenyl)-1-{2-[3-(4-methylpiperazin-1-yl)propanamido]pyridin-4-yl}-1H,2H,3H-pyrido[3,4-b][1,4]oxazine-5-carboxylic acid]
> 9.00 | CN(C)CCC(=O)Nc1cc(N2CCOc3cnc(-c4cc(Cl)ccc4F)cc32)ccn1 [Example 9, N-{4-[7-(5-chloro-2-fluorophenyl)-1H,2H,3H-pyrido[3,4-b][1,4]oxazin-1-yl]pyridin-2-yl}-3-(dimethylamino)propanamide]
> 9.00 | O=C(CCN1CCNCC1)Nc1cc(N2CCOc3cnc(-c4cc(Cl)ccc4F)cc32)ccn1 [Example 10, N-{4-[7-(5-chloro-2-fluorophenyl)-1H,2H,3H-pyrido[3,4-b][1,4]oxazin-1-yl]pyridin-2-yl}-3-(piperazin-1-yl)propanamide]
> 9.00 | CN1CC2(C1)CN(CC(=O)Nc1cc(N3CCOc4cnc(-c5cc(Cl)ccc5F)cc43)ccn1)C2 [Example 53, N-{4-[7-(5-chloro-2-fluorophenyl)-1H,2H,3H-pyrido[3,4-b][1,4]oxazin-1-yl]pyridin-2-yl}-2-{6-methyl-2,6-diazaspiro[3.3]heptan-2-yl}acetamide]
> 9.00 | CN1CC2(C1)CN(CC(=O)Nc1cc(N3CCOc4cnc(-c5cc(Cl)ccc5F)cc43)ccn1)CCO2 [Example 54, N-{4-[7-(5-chloro-2-fluorophenyl)-1H,2H,3H-pyrido[3,4-b][1,4]oxazin-1-yl]pyridin-2-yl}-2-{2-methyl-5-oxa-2,8-diazaspiro[3.5]nonan-8-yl}acetamide]
> 9.00 | CN1CCN(CCC(=O)Nc2cc(N3CCOc4cnc(-c5cc(Cl)ccc5F)cc43)ccn2)C(=O)C1 [Example 25, N-{4-[7-(5-chloro-2-fluorophenyl)-1H,2H,3H-pyrido[3,4-b][1,4]oxazin-1-yl]pyridin-2-yl}-3-(4-methyl-2-oxopiperazin-1-yl)propanamide]
> 9.00 | O=C(CCN1CCN(CCN(CCO)CCO)CC1)Nc1cc(N2CCOc3cnc(-c4cc(Cl)ccc4F)cc32)ccn1 [Example 36, 3-(4-{2-[bis(2-hydroxyethyl)amino]ethyl}piperazin-1-yl)-N-{4-[7-(5-chloro-2-fluorophenyl)-1H,2H,3H-pyrido[3,4-b][1,4]oxazin-1-yl]pyridin-2-yl}propanamide]
> 9.00 | O=C(CCN(CCO)CCO)Nc1cc(N2CCOc3cnc(-c4cc(Cl)ccc4F)cc32)ccn1 [Example 18, 3-[bis(2-hydroxyethyl)amino]-N-{4-[7-(5-chloro-2-fluorophenyl)-1H,2H,3H-pyrido[3,4-b][1,4]oxazin-1-yl]pyridin-2-yl}propanamide]
